Test: in vitro
Settings: human, hela cells, % viability

Row | Compound | viability at 28.5 h, 10 µM [%]
1 | COC(=O)c1ccc(CN2CCC(Oc3nccnc3OCc3ccc(Cl)c(Cl)c3)CC2)o1 [CBK153782] | 84.2
2 | O=C(CN1CCC(Oc2nccnc2OCc2ccc(Cl)c(Cl)c2)CC1)Nc1ccccc1 [CBK153783] | 110
3 | Cc1nc(CN2CCC(Oc3nccnc3OCc3ccc(Cl)c(Cl)c3)CC2)cs1 [CBK153787] | 95.9
4 | Clc1ccc(COc2nccnc2OC2CCN(Cc3ccncc3)CC2)cc1Cl [CBK153792] | 107
5 | O=C(NCc1cccs1)c1cnoc1-c1ccc([N+](=O)[O-])cc1 [CBK153845] | 82.9
6 | O=C(OCc1ccccc1)N1CCC(c2nc3ccc(Br)cc3[nH]2)CC1 [CBK153849] | 93.7
7 | CCc1ccc(CNC(=O)Cn2nnc(-c3ccc(CN4CCC(C)CC4)cn3)n2)cc1 [CBK153928C] | 93.6
8 | CCOc1ccc(OC(=O)C2CCN(C(=O)CC(C)C)CC2)cc1 [CBK154228] | 95.3
9 | O=S(=O)(CC(F)(F)F)Nc1cccc(-c2nnn[nH]2)c1 [CBK154272] | 83.9
10 | O=S(=O)(Nc1ccc(-c2nnn[nH]2)cc1)c1cc(Cl)c(Cl)s1 [CBK154745] | 116
11 | O=S(=O)(CC(F)(F)F)Nc1ccc(-c2nnn[nH]2)cc1 [CBK154754] | 107
12 | O=S(=O)(Nc1ccc(-c2nnn[nH]2)cc1)c1ccc(F)c(C(F)(F)F)c1 [CBK154759] | 96.9
13 | COc1ccc(OC(=O)C2CCN(C(=O)CC(C)C)CC2)c([N+](=O)[O-])c1 [CBK154770] | 97.4
14 | COc1cccc(C(=O)N2CCN(C(=O)Nc3ccsc3)CC2)c1 [CBK154782] | 91.5
15 | COc1cccc(C(=O)N2CCN(C(=O)Nc3ccccc3Br)CC2)c1 [CBK154783] | 94.4
16 | COc1cccc(C(=O)N2CCN(C(=O)Nc3ccc(C(F)(F)F)cc3)CC2)c1 [CBK154788] | 96.4
17 | O=C(NCC1CCOCC1)c1cc(-c2cccnc2)cnc1NCc1ccc2c(c1)OCO2 [CBK154825] | 104
18 | Cc1ccc(CNCCn2nnc(-c3ccc(CN4CCC(C)CC4)cc3)n2)cc1 [CBK154882T] | 93.3
19 | O=C(NCc1ccc(OC(F)(F)F)cc1)c1cnoc1-c1ccc(Br)cc1 [CBK154885] | 100
20 | Cc1cnc(CNC(=O)c2cnoc2-c2ccccc2)cn1 [CBK154926] | 98
21 | O=C(NCc1ccc(OC(F)(F)F)cc1)c1cnoc1-c1ccc(F)cc1 [CBK154952] | 100
22 | O=C(NCc1ccco1)c1cnoc1-c1ccc(F)cc1 [CBK154960] | 116
23 | CNC(=O)c1c(C)nc2ccccc2c1SCCC(=O)O [CBK154987T] | 101

Row | Compound | viability at 28.5 h, 10 µM [%]
24 | CS(=O)(=O)c1ccc(CN2C(=O)CC3(CCN(C(=O)Cc4cccs4)CC3)C2=O)cc1 [CBK155013] | 100
25 | CC(C)(C)c1ccc(C(=O)N2CCC3(CC2)CC(=O)N(Cc2ccc(S(C)(=O)=O)cc2)C3=O)cc1 [CBK155018] | 106
26 | COc1cccc(C(=O)N2CCC(NC(=O)Cc3ccc(F)cc3)CC2)c1 [CBK155027] | 85
27 | O=S(=O)(Nc1cccc(-c2nnn[nH]2)c1)c1sc(Cl)cc1Br [CBK155035] | 94.6
28 | CS(=O)(=O)c1ccc(-c2ccc(OC3CCN(C(=O)CCCc4ccc(F)cc4)CC3)nc2)cc1 [CBK155044] | 94.8
29 | CN(C)C(=O)c1ccc(-c2ccc(OC3CCN(C(=O)CC(C)(C)c4ccccc4)CC3)nc2)cc1 [CBK155047] | 101
30 | CN(C)C(=O)c1ccc(-c2ccc(OC3CCN(C(=O)CCC(=O)N4CCCC4)CC3)nc2)cc1 [CBK155051] | 108
31 | O=C(O)c1cccc(NS(=O)(=O)c2ccc(OC(F)(F)F)cc2)c1 [CBK155077] | 92.7
32 | Cn1nc(-c2ccc(S(=O)(=O)Nc3cccc(C(=O)O)c3)s2)cc1C(F)(F)F [CBK155080] | 86.9
33 | O=C(O)c1cccc(NS(=O)(=O)c2ccc(CNC(=O)c3ccc(Cl)cc3)s2)c1 [CBK155085] | 104
34 | CN(C)CCN(Cc1ccccc1)C(=O)NCc1c(Cl)cccc1Cl [CBK155107] | 97.3
35 | CCN(Cc1ccncc1)C(=O)NCCCSC [CBK155125] | 88.8
36 | CCN(Cc1ccncc1)C(=O)NCc1cnc(C)cn1 [CBK155128] | 105
37 | CCN(Cc1ccncc1)C(=O)Nc1ccc(N(CC)CC)cc1 [CBK155141] | 90.3
38 | CCN(Cc1ccncc1)C(=O)NCCOc1ccccc1 [CBK155148] | 100
39 | CCN(Cc1ccncc1)C(=O)NCCc1ccc(OC)cc1 [CBK155149] | 94.6
40 | CN1CCN(CCCNC(=O)N2CCN(c3ccccc3)CC2)CC1 [CBK155168] | 101
41 | Cc1cnc(CNC(=O)N2CCN(c3ccccc3)CC2)cn1 [CBK155174] | 101
42 | O=C(NCc1cccc2ccccc12)N1CCN(c2ccccc2)CC1 [CBK155175] | 89.1
43 | O=C(NC(c1ccccc1)c1ccccc1)N1CCN(c2ccccc2)CC1 [CBK155177] | 90.7
44 | O=C(NCCN1CCOCC1)N1CCN(c2ccccc2)CC1 [CBK155180] | 83.8
45 | COCCNC(=O)N1CCN(c2ccccc2)CC1 [CBK155181] | 96.1
46 | O=C(Nc1ccc2c(c1)OCCO2)N1CCN(c2ccccc2)CC1 [CBK155187] | 94.7

Row | Compound | viability at 28.5 h, 10 µM [%]
47 | O=C(NCc1ccc(Cl)cc1)N1CCN(c2ccccc2)CC1 [CBK155193] | 97.9
48 | O=C(NCC(c1ccccc1)c1ccccc1)N1CCN(c2ccccc2)CC1 [CBK155197] | 89.8
49 | O=C(NCCOc1ccccc1)N1CCN(c2ccccc2)CC1 [CBK155198] | 88.5
50 | COc1ccc(CCNC(=O)N2CCN(c3ccccc3)CC2)cc1 [CBK155199] | 96.8
51 | CCN(CC)CCNC(=O)N1CCN(c2ccccc2)CC1 [CBK155202] | 116
52 | CC(C)CCNC(=O)N1CCN(c2ccccc2)CC1 [CBK155203] | 101
53 | CC(NC(=O)N1CCN(c2ccccc2)CC1)c1ccccc1 (stereo not drawn) [CBK155207] | 99.3
54 | CCN(Cc1ccccc1)C(=O)NCCCN1CCN(C)CC1 [CBK155212] | 102
55 | CCN(Cc1ccccc1)C(=O)NCCCSC [CBK155214] | 94.3
56 | CCN(Cc1ccccc1)C(=O)NCc1cnc(C)cn1 [CBK155218] | 107
57 | CCN(Cc1ccccc1)C(=O)NCCc1c[nH]cn1 [CBK155220] | 92.8
58 | CCN(Cc1ccccc1)C(=O)NCCc1c[nH]c2ccc(OC)cc12 [CBK155226] | 87
59 | CCN(Cc1ccccc1)C(=O)Nc1ccc2[nH]ccc2c1 [CBK155229] | 95.2
60 | CCN(Cc1ccccc1)C(=O)Nc1ccc2c(c1)OCCO2 [CBK155231] | 100
61 | CCN(Cc1ccccc1)C(=O)Nc1ccc(C)cc1 [CBK155248] | 99.1
62 | CCOC(=O)CCCNC(=O)N(CC)Cc1ccccc1 [CBK155252] | 106
63 | COc1ccc(C(=O)N(C)C2CCN(C)C2)cc1Nc1cncc(-c2cc3ccccc3[nH]2)n1 (stereo not drawn) [CBK155260T] | 108
64 | CSc1nnc(N(C)S(=O)(=O)c2ccc(C)cc2)s1 [CBK155272] | 87.2
65 | N#Cc1ccc(CNC(=O)N2CCc3ccccc3C2)cc1 [CBK155287] | 107
66 | NC(=O)CCNC(=O)N1CCc2ccccc2C1 [CBK155288] | 104
67 | Cc1ccc(NC(=O)N2CCc3ccccc3C2)cc1 [CBK155309] | 93.6
68 | CSCCCNC(=O)N(CCc1ccccc1)Cc1ccccc1 [CBK155317] | 87.2
69 | N#Cc1cccc(S(=O)(=O)Nc2ccc(-c3nnn[nH]3)cc2)c1 [CBK155427] | 95.5

Row | Compound | viability at 28.5 h, 10 µM [%]
70 | O=C(N1CCc2ccc(S(=O)(=O)Nc3ccc(-c4nnn[nH]4)cc3)cc2C1)C(F)(F)F [CBK155437] | 99.9
71 | CCc1c(C)nc2ccccc2c1SCCOC(=O)Nc1ccccc1 [CBK155466T] | 85.6
72 | CCc1c(S(=O)(=O)CCC(=O)OC)c2ccccc2[n+]([O-])c1C [CBK155469T] | 91.4
73 | CN(C)CC(=O)N1Cc2cccc3c2c(cn3S(=O)(=O)c2ccccc2)C1 [CBK155548T] | 94.5
74 | CCc1c(C)nc2ccccc2c1SCCOC(=O)Nc1ccc(OC)cc1 [CBK155554T] | 92.5
75 | COc1ccc(CNC(=O)N2CCN(c3ccccc3OC)CC2)cc1OC [CBK155609] | 89.2
76 | COc1ccccc1N1CCN(C(=O)NCCCN2CCCC2=O)CC1 [CBK155612] | 99.5
77 | COc1ccccc1N1CCN(C(=O)Nc2cccnc2)CC1 [CBK155617] | 98.7
78 | CCOC(=O)CCCNC(=O)N1CCN(c2ccccc2OC)CC1 [CBK155618] | 95.9
79 | CN1CCN(CCCNC(=O)N2CCN(Cc3ccccc3)CC2)CC1 [CBK155621] | 91.3
80 | O=C(NCCc1c[nH]c2ccccc12)N1CCN(Cc2ccccc2)CC1 [CBK155646] | 78.9
81 | O=C(NCC(c1ccccc1)c1ccccc1)N1CCN(Cc2ccccc2)CC1 [CBK155651] | 83.9
82 | O=C(NCCOc1ccccc1)N1CCN(Cc2ccccc2)CC1 [CBK155652] | 93.3
83 | CC(C)CCNC(=O)N1CCN(Cc2ccccc2)CC1 [CBK155657] | 87.2
84 | O=C(NC1CCc2ccccc21)N1CCN(Cc2ccccc2)CC1 (stereo not drawn) [CBK155662] | 97
85 | O=C(Nc1cccnc1)N1CCN(Cc2ccccc2)CC1 [CBK155663] | 87.7
86 | CCOC(=O)CCCNC(=O)N1CCN(Cc2ccccc2)CC1 [CBK155664] | 89.2
87 | CSCCCNC(=O)N1CCN(CCN2CCOCC2)CC1 [CBK155669] | 90.9
88 | O=C(NCc1cccc(C(F)(F)F)c1)N1CCN(CCN2CCOCC2)CC1 [CBK155671] | 98.9
89 | Cc1cnc(CNC(=O)N2CCN(CCN3CCOCC3)CC2)cn1 [CBK155673] | 95.2
90 | O=C(O)c1cccc(NS(=O)(=O)c2ccc(Br)cc2F)c1 [CBK155691] | 95.6

— paper PMC12040169 (PLOS Biology, 2025)
